Data as given in PMC7762994 (Viruses, 2020).

Columns and labels:
EDEM3 = EDEM3 (Homo sapiens, UniProt Q9BZQ6); experiment: TPP-TR in HAZV-infected SW13 cells; conditions: 20 μM, 4 h
DNAJC13 = molecular target: T1, DNAJC13 (Homo sapiens, UniProt O75165); experiment: 2D-TPP in U87 cells; assay type: binding; conditions: 1.5 h, stabilized, read-out: pEC50 of protein stabilization, DNAJC13 (converted)
T1 construct: endogenous in cells; host or cells: U87 cells

HSPA12A = molecular target: T2, HSPA12A (Homo sapiens, UniProt O43301); experiment: 2D-TPP in U87 cells; assay type: binding; conditions: 1.5 h, destabilized, read-out: pEC50 of protein destabilization, HSPA12A (converted)
T2 construct: endogenous in cells; host or cells: U87 cells
T2 sequence (O43301 whole entry): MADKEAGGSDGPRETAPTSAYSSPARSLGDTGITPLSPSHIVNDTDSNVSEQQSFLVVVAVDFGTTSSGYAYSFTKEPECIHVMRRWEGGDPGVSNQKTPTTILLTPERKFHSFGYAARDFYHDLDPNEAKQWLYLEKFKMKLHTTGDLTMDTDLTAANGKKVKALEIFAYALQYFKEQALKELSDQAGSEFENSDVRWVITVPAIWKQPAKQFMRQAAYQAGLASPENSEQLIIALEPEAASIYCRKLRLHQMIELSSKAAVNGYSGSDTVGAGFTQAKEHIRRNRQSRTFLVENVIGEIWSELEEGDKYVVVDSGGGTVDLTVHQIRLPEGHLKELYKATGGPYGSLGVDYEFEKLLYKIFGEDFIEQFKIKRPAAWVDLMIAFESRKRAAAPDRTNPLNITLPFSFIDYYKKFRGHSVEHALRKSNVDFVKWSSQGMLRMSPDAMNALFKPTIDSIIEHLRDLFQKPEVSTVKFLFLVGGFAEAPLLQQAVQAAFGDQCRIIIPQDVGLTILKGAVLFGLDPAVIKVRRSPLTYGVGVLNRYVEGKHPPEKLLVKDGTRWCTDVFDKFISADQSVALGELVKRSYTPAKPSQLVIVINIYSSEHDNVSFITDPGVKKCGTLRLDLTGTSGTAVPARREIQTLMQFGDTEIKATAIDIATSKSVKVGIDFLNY

OGG1 = OGG1 (Homo sapiens, UniProt O15527); experiment: In vitro OGG1 activity assay; assay type: biochemical
OGG1, sequence (O15527 whole entry): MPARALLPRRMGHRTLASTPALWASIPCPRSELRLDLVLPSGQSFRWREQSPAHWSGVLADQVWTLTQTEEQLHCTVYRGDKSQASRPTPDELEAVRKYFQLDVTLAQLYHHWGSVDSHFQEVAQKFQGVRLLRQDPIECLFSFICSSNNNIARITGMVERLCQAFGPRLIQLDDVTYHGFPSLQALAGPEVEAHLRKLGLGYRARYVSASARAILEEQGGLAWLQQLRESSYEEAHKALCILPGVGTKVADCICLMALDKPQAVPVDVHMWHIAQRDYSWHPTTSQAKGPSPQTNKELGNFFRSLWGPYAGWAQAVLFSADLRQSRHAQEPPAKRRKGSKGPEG

T1 sequence (O75165 whole entry): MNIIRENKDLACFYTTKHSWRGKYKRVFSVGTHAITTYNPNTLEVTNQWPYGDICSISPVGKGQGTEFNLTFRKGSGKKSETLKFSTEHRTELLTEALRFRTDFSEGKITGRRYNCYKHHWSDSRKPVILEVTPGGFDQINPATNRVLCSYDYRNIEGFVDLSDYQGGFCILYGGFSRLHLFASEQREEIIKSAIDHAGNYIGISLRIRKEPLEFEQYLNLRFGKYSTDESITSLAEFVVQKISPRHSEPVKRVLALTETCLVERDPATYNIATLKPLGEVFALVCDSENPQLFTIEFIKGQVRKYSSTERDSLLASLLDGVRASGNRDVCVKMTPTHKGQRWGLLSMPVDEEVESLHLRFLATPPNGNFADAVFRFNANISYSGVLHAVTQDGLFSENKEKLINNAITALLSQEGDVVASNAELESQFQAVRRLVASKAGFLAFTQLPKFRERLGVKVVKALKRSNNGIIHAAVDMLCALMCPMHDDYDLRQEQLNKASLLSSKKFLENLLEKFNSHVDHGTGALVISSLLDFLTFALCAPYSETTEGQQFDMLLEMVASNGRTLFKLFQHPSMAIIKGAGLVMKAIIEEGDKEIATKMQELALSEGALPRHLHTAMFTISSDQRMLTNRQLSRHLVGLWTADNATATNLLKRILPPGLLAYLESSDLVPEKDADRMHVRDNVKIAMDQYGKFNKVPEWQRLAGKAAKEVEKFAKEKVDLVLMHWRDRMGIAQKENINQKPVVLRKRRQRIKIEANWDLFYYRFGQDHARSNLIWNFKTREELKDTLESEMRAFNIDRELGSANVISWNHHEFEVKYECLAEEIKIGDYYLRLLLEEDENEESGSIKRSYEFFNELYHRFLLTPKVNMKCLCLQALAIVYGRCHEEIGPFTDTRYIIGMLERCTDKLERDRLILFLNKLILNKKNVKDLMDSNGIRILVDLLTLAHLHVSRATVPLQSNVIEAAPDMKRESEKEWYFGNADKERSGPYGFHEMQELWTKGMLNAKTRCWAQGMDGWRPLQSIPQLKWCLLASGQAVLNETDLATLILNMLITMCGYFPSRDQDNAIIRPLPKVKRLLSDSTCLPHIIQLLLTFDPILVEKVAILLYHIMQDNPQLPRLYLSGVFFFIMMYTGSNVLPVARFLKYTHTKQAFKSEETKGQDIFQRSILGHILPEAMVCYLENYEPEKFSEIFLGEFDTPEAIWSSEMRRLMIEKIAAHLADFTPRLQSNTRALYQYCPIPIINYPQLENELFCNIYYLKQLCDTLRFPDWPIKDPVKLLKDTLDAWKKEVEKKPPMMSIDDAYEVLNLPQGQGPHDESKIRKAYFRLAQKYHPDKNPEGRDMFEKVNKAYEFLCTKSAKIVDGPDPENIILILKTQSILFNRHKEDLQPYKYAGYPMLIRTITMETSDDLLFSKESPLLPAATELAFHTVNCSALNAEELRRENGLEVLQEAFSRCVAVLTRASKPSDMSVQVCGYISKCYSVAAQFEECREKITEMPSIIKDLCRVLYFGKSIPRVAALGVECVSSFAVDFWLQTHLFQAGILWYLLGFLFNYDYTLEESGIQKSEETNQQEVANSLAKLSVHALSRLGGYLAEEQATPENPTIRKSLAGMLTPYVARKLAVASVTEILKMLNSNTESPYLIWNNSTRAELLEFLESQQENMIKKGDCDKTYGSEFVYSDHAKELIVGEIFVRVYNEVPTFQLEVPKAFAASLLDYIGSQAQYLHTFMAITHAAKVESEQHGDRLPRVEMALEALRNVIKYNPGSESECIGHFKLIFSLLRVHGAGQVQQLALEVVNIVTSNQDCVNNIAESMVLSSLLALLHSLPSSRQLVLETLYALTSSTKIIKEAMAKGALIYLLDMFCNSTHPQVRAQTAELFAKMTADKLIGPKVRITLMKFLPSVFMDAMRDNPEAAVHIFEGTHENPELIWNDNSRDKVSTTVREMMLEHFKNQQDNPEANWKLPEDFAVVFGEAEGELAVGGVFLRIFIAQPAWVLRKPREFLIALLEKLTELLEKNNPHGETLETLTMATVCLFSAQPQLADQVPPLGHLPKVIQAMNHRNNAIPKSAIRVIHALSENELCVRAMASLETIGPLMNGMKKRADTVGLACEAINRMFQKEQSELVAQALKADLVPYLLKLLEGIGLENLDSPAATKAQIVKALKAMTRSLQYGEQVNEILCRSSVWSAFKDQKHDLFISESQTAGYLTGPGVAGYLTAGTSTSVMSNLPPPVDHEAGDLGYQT
EDEM3, sequence (Q9BZQ6 42-932): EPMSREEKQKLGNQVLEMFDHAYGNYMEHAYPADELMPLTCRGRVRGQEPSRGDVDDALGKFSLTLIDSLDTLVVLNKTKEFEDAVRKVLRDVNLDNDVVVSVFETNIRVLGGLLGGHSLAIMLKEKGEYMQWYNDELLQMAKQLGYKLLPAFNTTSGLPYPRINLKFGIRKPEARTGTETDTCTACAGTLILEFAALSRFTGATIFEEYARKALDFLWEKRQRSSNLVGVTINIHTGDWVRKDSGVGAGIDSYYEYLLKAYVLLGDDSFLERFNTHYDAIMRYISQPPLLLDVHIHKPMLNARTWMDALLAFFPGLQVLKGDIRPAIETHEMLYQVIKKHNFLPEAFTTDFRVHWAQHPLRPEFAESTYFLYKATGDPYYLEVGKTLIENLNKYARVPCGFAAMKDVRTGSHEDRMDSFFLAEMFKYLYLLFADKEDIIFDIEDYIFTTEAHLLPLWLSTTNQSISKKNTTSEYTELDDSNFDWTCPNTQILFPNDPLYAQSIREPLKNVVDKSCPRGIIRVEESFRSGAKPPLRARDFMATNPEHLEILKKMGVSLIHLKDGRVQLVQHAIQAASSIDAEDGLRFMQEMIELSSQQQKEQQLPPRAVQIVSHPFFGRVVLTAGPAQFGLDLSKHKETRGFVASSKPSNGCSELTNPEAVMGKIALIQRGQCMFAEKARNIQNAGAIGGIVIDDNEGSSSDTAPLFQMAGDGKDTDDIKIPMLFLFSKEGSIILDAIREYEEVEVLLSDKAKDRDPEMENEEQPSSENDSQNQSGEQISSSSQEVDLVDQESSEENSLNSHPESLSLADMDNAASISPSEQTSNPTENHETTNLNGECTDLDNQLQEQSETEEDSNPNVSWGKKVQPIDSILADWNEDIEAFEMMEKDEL

CCOC(=O)c1cnn(-c2cccc3c2[nH]c(=O)n3C2CCN(C(=O)Nc3ccc(I)cc3)CC2)c1 [TH6744, ethyl 1-(1-(1-((4-iodophenyl)carbamoyl)piperidin-4-yl)-2-oxo-2,3-dihydro-1H-benzo[d]imidazol-4-yl)-1H-pyrazole-4-carboxylate] was tested, and the “thermal stability change of EDEM3” value (EDEM3) was “stabilized”, the EC50 (DNAJC13) was 1000 nM and the EC50 (HSPA12A) was 12600 nM. For the same molecule, the IC50 (OGG1) was 680 nM and the “OGG1 activity (in words)” value (OGG1; Figure 3A) was “Nanomolar OGG1activity”.
